Measurements taken from patent publication US10479819B2 (priority 2014, dated 2019).
Starred links: 1 amine or outer side, 2 acyl side, 3 side chain; linkers in the order of their positions; H or OH if unused. Non-standard residues stand in square brackets, D forms with d. Residues, ends and D or L forms follow the SMILES beside them. Groups on a side chain read outwards from the residue. *: point of attachment. C18 diacid = O=C(O)CCCCCCCCCCCCCCCCC(=O)*; γGlu = O=C(O)[C@H](CCC(=O)[*:2])N[*:1]; PEG2 = NCCOCCOCCC(=O)O; Aib = CC(C)(N)C(=O)O

Assays:
[1] = Pharmacokinetic analysis after IV or SC administration in male CD1 mice; conditions: for Tmax / half-life: iv
Procedure: Pharmacokinetic parameters of the drugs were calculated by methods of model dependence (for data obtained from IV) and model independence (data obtained from SC).

male C57B1/6J mice = assay: Oral glucose tolerance test in male C57B1/6J mice; type: in vivo; conditions: 250 μg/kg; for AUC of blood glucose in all four OGTT curve periods (0-480 min) compared with carrier (PBS): P<0.05; for effect on oral glucose tolerance: male C57B1/6J mice
Procedure: 12-16 week-old male C57B1/6J mice (Nanjing University model animal research center) were randomly divided into groups 8 in each group, according to similar blood glucose (assessed by the blood samples obtained from the tail tip). After fasting (for 6 hours), the animals were administrated, and about 4 hours later, initial blood samples (fasting blood glucose level) were taken. Subsequently, the animals were administrated with an oral dose of glucose, and then put back into their cages (t=0). Blood glucose was measured at t=15 minutes, t=30 minutes, t=60 minutes, t=90 minutes and t=120 minutes. And then the animals were administrated with an oral dose of glucose again, and blood glucose was tracked until 8 hours.

DIO mice = assay: Body weight reduction in DIO (obese) mice; type: in vivo; conditions: 250 μg/kg SC daily, day 11 to day 30, DIO mice
Excerpt: Forty 25-week-old DIO mice (Nanjing University model animal research center) were randomly divided into five groups (compound 4, 5, 6, 7, and normal saline group), 8 in each group, having no difference in the basis weight of each group.

human GLP-1R = target: T1, human GLP-1R (Homo sapiens, UniProt P43220); assay: In vitro activity on GLP-1R, CRE-luciferase HEK-293 cells; type: cell-based; conditions: for GLP-1R/GCGR: ratio of EC50 GLP-1R to EC50 GCGR
T1 construct: expressed in transfected cells
Procedure: 5000 of HEK-293 cells, which are used in CRE-luciferase system and express human GCGR or GLP-1R stably, were inoculated into 384 well plates according to […] DMEM/10% FBS media/well. […] After incubation, […] of luciferase reagent was added directly to each plate and mixed gently for 2 minutes. The plates were placed into an Elmer Perkin plate reader for reading. Concentration curve of the compound was made by drawing software Prism 5, and the EC50 value was calculated.

T1 sequence (P43220 24-463): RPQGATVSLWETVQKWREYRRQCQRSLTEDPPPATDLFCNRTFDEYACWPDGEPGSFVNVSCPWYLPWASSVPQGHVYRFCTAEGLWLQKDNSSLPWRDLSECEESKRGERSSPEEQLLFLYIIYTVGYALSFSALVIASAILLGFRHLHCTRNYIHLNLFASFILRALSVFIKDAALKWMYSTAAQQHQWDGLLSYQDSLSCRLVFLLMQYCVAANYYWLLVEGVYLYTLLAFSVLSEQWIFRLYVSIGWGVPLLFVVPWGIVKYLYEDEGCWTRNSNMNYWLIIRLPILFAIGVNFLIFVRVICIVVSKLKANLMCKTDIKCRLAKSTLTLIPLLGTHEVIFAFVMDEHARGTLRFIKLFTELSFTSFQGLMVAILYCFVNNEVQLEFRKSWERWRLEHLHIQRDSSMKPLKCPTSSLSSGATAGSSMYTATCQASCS

Row | Compound | clinical adverse effect ([1]; mouse, in vivo) | Tmax ([1]; mouse, in vivo) [h] | half-life ([1]; mouse, in vivo) [min] | peak time ([1]; mouse, in vivo, sc) | AUC of blood glucose in all four OGTT curve periods (0-480 min) compared with carrier (PBS) (male C57B1/6J mice) | effect on oral glucose tolerance (male C57B1/6J mice) | weight loss (DIO mice) | body weight compared with normal saline group (DIO mice; P<0.05) | GLP-1R/GCGR (human GLP-1R) | clinical adverse effect ([1]; IV or SC route, male CD1 mice) | EC50 (human GLP-1R) [nM]
1 | CCCCCCCCCCCCCCCC(=O)N[C@@H](CCC(=O)NCCOCCOCCC(=O)NCCOCCOCCC(=O)NCCCC[C@H](NC(=O)[C@H](CC(=O)O)NC(=O)[C@H](CO)NC(=O)[C@@H](NC(=O)[C@H](Cc1ccccc1)NC(=O)[C@@H](NC(=O)CNC(=O)[C@H](CCC(N)=O)NC(=O)[C@@H](CO)NC(=O)[C@@H](N)Cc1c[nH]cn1)[C@@H](C)O)[C@@H](C)O)C(=O)N[C@@H](CO)C(=O)N[C@@H](CCCCN)C(=O)N[C@@H](Cc1ccc(O)cc1)C(=O)N[C@@H](CC(C)C)C(=O)N[C@@H](CC(=O)O)C(=O)NC(C)(C)C(=O)N[C@@H](CCCNC(=N)N)C(=O)N[C@@H](CCCNC(=N)N)C(=O)N[C@@H](C)C(=O)N[C@@H](CCC(N)=O)C(=O)N[C@@H](CC(=O)O)C(=O)N[C@@H](Cc1ccccc1)C(=O)N[C@H](C(=O)N[C@@H](CCC(N)=O)C(=O)N[C@@H](Cc1c[nH]c2ccccc12)C(=O)N[C@@H](CC(C)C)C(=O)N[C@@H](CCSC)C(=O)N[C@@H](CC(N)=O)C(=O)N[C@H](C(=O)NCC(=O)NCC(=O)N1CCC[C@H]1C(=O)N[C@@H](CO)C(=O)N[C@@H](CO)C(=O)NCC(=O)N[C@@H](C)C(=O)N1CCC[C@H]1C(=O)N1CCC[C@H]1C(=O)N1CCC[C@H]1C(=O)N[C@@H](CO)C(N)=O)[C@@H](C)O)C(C)C)C(=O)O [Compound 7] | no clinical adverse effect | ~12 | 240 to 360 | more than 12 hours | significantly decreased | significantly reduced the oral glucose tolerance | about 20% | significantly lower | – | – | –
2 | CSCC[C@H](NC(=O)[C@H](CC(C)C)NC(=O)[C@H](Cc1c[nH]c2ccccc12)NC(=O)[C@H](CCC(N)=O)NC(=O)[C@@H](NC(=O)[C@H](Cc1ccccc1)NC(=O)[C@H](CC(=O)O)NC(=O)[C@H](CCC(N)=O)NC(=O)[C@H](C)NC(=O)[C@H](CCCNC(=N)N)NC(=O)[C@H](CCCNC(=N)N)NC(=O)C(C)(C)NC(=O)[C@H](CC(=O)O)NC(=O)[C@H](CC(C)C)NC(=O)[C@H](CCCCN)NC(=O)[C@H](CCCCNC(=O)CCOCCOCCNC(=O)CCOCCOCCNC(=O)CCCCCCCCCCCCCCCCC(=O)O)NC(=O)[C@H](CO)NC(=O)[C@H](Cc1ccc(O)cc1)NC(=O)[C@H](CC(=O)O)NC(=O)[C@H](CO)NC(=O)[C@@H](NC(=O)[C@H](Cc1ccccc1)NC(=O)[C@@H](NC(=O)CNC(=O)[C@H](CCC(N)=O)NC(=O)[C@@H](CO)NC(=O)[C@@H](N)Cc1c[nH]cn1)[C@@H](C)O)[C@@H](C)O)C(C)C)C(=O)N[C@@H](CC(N)=O)C(=O)N[C@H](C(=O)NCC(=O)NCC(=O)N1CCC[C@H]1C(=O)N[C@@H](CO)C(=O)N[C@@H](CO)C(=O)NCC(=O)N[C@@H](C)C(=O)N1CCC[C@H]1C(=O)N1CCC[C@H]1C(=O)N1CCC[C@H]1C(=O)N[C@@H](CO)C(N)=O)[C@@H](C)O [Compound 16] | – | – | – | – | – | – | – | – | 3 | – | –
3 | CC(C)C[C@H](NC(=O)[C@H](CC(C)C)NC(=O)[C@H](Cc1c[nH]c2ccccc12)NC(=O)[C@H](CCC(N)=O)NC(=O)[C@@H](NC(=O)[C@H](Cc1ccccc1)NC(=O)[C@H](CC(=O)O)NC(=O)[C@H](CCC(N)=O)NC(=O)[C@H](C)NC(=O)[C@H](CCCNC(=N)N)NC(=O)[C@H](CCCNC(=N)N)NC(=O)[C@H](CCC(=O)O)NC(=O)[C@H](CC(=O)O)NC(=O)[C@H](CC(C)C)NC(=O)[C@H](Cc1ccc(O)cc1)NC(=O)[C@H](CCCCN)NC(=O)[C@H](CO)NC(=O)[C@H](CCCCNC(=O)CCOCCOCCNC(=O)CCOCCOCCNC(=O)CC[C@H](NC(=O)CCCCCCCCCCCCCCCCC(=O)O)C(=O)O)NC(=O)[C@H](CC(=O)O)NC(=O)[C@H](CO)NC(=O)[C@@H](NC(=O)[C@H](Cc1ccccc1)NC(=O)[C@@H](NC(=O)CNC(=O)[C@H](CCC(N)=O)NC(=O)C(C)(C)NC(=O)[C@@H](N)Cc1c[nH]cn1)[C@@H](C)O)[C@@H](C)O)C(C)C)C(=O)N[C@@H](CC(=O)O)C(=O)NCC(=O)NCC(=O)N1CCC[C@H]1C(=O)N[C@@H](CO)C(=O)N[C@@H](CO)C(=O)NCC(=O)N[C@@H](C)C(=O)N1CCC[C@H]1C(=O)N1CCC[C@H]1C(=O)N1CCC[C@H]1C(=O)N[C@@H](CO)C(N)=O [Compound 20] (H-H[Aib]QGTFTSDK([PEG2-PEG2-γGlu-C18 diacid])SKYLDERRAQDFVQWLLDGGPSSGAPPPS-NH2) | – | ~12 | 240 to 360 | – | significantly decreased | significantly reduced the oral glucose tolerance | – | – | 0.18 | no clinical adverse effect | –
4 | CCCCCCCCCCCCCCCC(=O)N[C@@H](CCC(=O)NCCOCCOCCC(=O)NCCOCCOCCC(=O)NCCCC[C@H](NC(=O)[C@H](CC(=O)O)NC(=O)[C@H](CO)NC(=O)[C@@H](NC(=O)[C@H](Cc1ccccc1)NC(=O)[C@@H](NC(=O)CNC(=O)[C@H](CCC(N)=O)NC(=O)C(C)(C)NC(=O)[C@@H](N)Cc1c[nH]cn1)[C@@H](C)O)[C@@H](C)O)C(=O)N[C@@H](CO)C(=O)N[C@@H](CCCCN)C(=O)N[C@@H](Cc1ccc(O)cc1)C(=O)N[C@@H](CC(C)C)C(=O)N[C@@H](CC(=O)O)C(=O)NC(C)(C)C(=O)N[C@@H](CCCNC(=N)N)C(=O)N[C@@H](CCCNC(=N)N)C(=O)N[C@@H](C)C(=O)N[C@@H](CCC(N)=O)C(=O)N[C@@H](CC(=O)O)C(=O)N[C@@H](Cc1ccccc1)C(=O)N[C@H](C(=O)N[C@@H](CCC(N)=O)C(=O)N[C@@H](Cc1c[nH]c2ccccc12)C(=O)N[C@@H](CC(C)C)C(=O)N[C@@H](CC(C)C)C(=O)N[C@@H](CC(=O)O)C(=O)NCC(=O)NCC(=O)N1CCC[C@H]1C(=O)N[C@@H](CO)C(=O)N[C@@H](CO)C(=O)NCC(=O)N[C@@H](C)C(=O)N1CCC[C@H]1C(=O)N1CCC[C@H]1C(=O)N1CCC[C@H]1C(=O)N[C@@H](CO)C(N)=O)C(C)C)C(=O)O [Compound 21] | – | ~12 | 240 to 360 | – | significantly decreased | significantly reduced the oral glucose tolerance | – | – | 0.23 | no clinical adverse effect | –
5 | CC(C)C[C@H](NC(=O)[C@H](CC(C)C)NC(=O)[C@H](Cc1c[nH]c2ccccc12)NC(=O)[C@H](CCC(N)=O)NC(=O)[C@@H](NC(=O)[C@H](Cc1ccccc1)NC(=O)[C@H](CC(=O)O)NC(=O)[C@H](CCC(N)=O)NC(=O)[C@H](C)NC(=O)[C@H](CCCNC(=N)N)NC(=O)[C@H](CCCNC(=N)N)NC(=O)C(C)(C)NC(=O)[C@H](CC(=O)O)NC(=O)[C@H](CC(C)C)NC(=O)[C@H](Cc1ccc(O)cc1)NC(=O)[C@H](CCCCN)NC(=O)[C@H](CO)NC(=O)[C@H](CCCCNC(=O)CCOCCOCCNC(=O)CCOCCOCCNC(=O)CC[C@H](NC(=O)CCCCCCCCCCCCCCCCC(=O)O)C(=O)O)NC(=O)[C@H](CC(=O)O)NC(=O)[C@H](CO)NC(=O)[C@@H](NC(=O)[C@H](Cc1ccccc1)NC(=O)[C@@H](NC(=O)CNC(=O)[C@H](CCC(N)=O)NC(=O)C(C)(C)NC(=O)[C@@H](N)Cc1c[nH]cn1)[C@@H](C)O)[C@@H](C)O)C(C)C)C(=O)N[C@@H](CC(=O)O)C(=O)NCC(=O)NCC(=O)N1CCC[C@H]1C(=O)N[C@@H](CO)C(=O)N[C@@H](CO)C(=O)NCC(=O)N[C@@H](C)C(=O)N1CCC[C@H]1C(=O)N1CCC[C@H]1C(=O)N1CCC[C@H]1C(=O)N[C@@H](CO)C(N)=O [Compound 22] (H-H[Aib]QGTFTSDK([PEG2-PEG2-γGlu-C18 diacid])SKYLD[Aib]RRAQDFVQWLLDGGPSSGAPPPS-NH2) | – | ~12 | 240 to 360 | – | significantly decreased | significantly reduced the oral glucose tolerance | – | – | 0.19 | no clinical adverse effect | 0.06
6 | His-Aib-Gln-Gly-Thr-Phe-Thr-Ser-Asp-Lys(PEG2-PEG2-Glu-CO(CH2)14CH3)-Ser-Lys-Tyr-Leu-Asp-Glu-Arg-Arg-Ala-Gln-Asp-Phe-Val-Gln-Trp-Leu-Leu-Asp-Gly-Gly-Pro-Ser-Ser-Gly-Ala-Pro-Pro-Pro-Ser-NH2 [Compound 19] | – | – | – | – | significantly decreased | significantly reduced the oral glucose tolerance | – | – | 0.25 | – | –
